Data from US10533231B2, “Artificial bioluminescent enzyme” (NATIONAL INSTITUTE OF ADVANCED INDUSTRIAL SCIENCE AND …, priority 2012, dated 2020).

Key:
[1] = test system: artificial luciferase (ALuc); assay: Effects of heavy metal ions as additive for assay buffer (Example 2-3); assay type: cell-based; details: 1 ppm in HBSS buffer after C3 lysis
Protocol: This example examined the effects of a heavy metal ion as an additive for an assay buffer (FIG. 25). […] After 16-hour incubation in a CO2 incubator, 50 μL of a C3 solution was added to each well to allow for cell lysis for 20 minutes. 1 ppm of each type of heavy metal ion shown in FIG. 25 and 50 μL of a substrate-containing HBSS buffer were added to the lysate simultaneously, and the relative luminescence intensities were immediately measured with an LAS-4000. After the substrate-containing assay buffer was further added, the luminescence at the 8- and 16-minute point was measured to examine the luminescence stability.

COS-7 cells [2] = assay: Enzymatic activity confirmation of ALuc (section 3-1, 3-2); assay type: cell-based, African monkey; details: vs conventional copepod luciferases
Protocol: First, using a known lipid reagent for gene introduction, an expression vector encoding ALuc is introduced into African monkey-derived COS-7 cells; as a control, an expression vector having a known GLuc without any mutation into the cells is also introduced in the same manner. At a predetermined time (from 10 to 20 hours, for example, 16 hours) after the introduction of the vector, a cell lysate is prepared using a known lysis reagent.
Thereafter, the cell lysate is mixed with a known substrate solution containing coelenterazine, and its color intensity, temporal stability in luminescence, etc., are measured.
The luminescence intensity may be found by measuring the intensity at a specific wavelength using a known luminescence spectrophotometer after addition of a known substrate. By performing the measurement every minute, the temporal stability in luminescence can be evaluated. To measure a shift to a longer wavelength, scanning of the entire wavelength is necessary.

COS-7 cells [3] = assay: Comparison of luminescence intensity of ALucs (Example 1-2); assay type: cell-based, African green monkey; details: COS-7 cultured overnight, Promega assay solution, LAS-4000
Source text: The artificial luciferase (ALuc) genes synthesized by the above process were subcloned into mammalian cell expression vectors (pcDNA3.1 (+)). Each expression vector was transfected with African green monkey kidney-derived COS-7 cells, and the luminescence intensity, luminescence stability, and red-shifted degree of artificial luciferases (ALucs) were compared (FIGS. 2 to 5).
First, the luminescence intensity of artificial luciferases (ALucs) was compared (FIG. 2). For the comparison, COS-7 cells containing a vector encoding each luciferase were cultured overnight, and then the relative luminescence intensity was measured by using an assay solution, which is a mixture of a cell lysis solution and a substrate, produced by Promega, and a luminescence image analyzer (LAS-4000).

| Molecule | effect of heavy metal additive on luminescence intensity [1] | luminescence stability (general statement) (COS-7 cells [2]) | other results |
| --- | --- | --- | --- |
| [Ca+2] [Ca(II)] | suitable to be added to C3 and HBSS |  |  |
| [Ni+2] [Ni(II)] | significantly decrease the luminescence intensity |  |  |
| [Fe+3] [Fe(III)] | suitable to be added to C3 and HBSS |  | comprehensive evaluation of luminescence intensity and stability [1]: excellent additives |
| [Mo] [Mo(VI)] |  |  | comprehensive evaluation of luminescence intensity and stability [1]: excellent additives |
| [Cd+2] [Cd(II)] | significantly decrease the luminescence intensity |  |  |
| [Zn+2] [Zn(II)] |  |  | comprehensive evaluation of luminescence intensity and stability [1]: excellent additives |
| [Mg+2] [Mg(II)] | suitable to be added to C3 and HBSS |  |  |
| [Co+2] [Co(II)] | significantly decrease the luminescence intensity |  |  |
| [Cu+2] [Cu(II)] | suitable to be added to C3 and HBSS |  | comprehensive evaluation of luminescence intensity and stability [1]: excellent additives |
| [Al+3] [Al(III)] | suitable to be added to C3 and HBSS |  | comprehensive evaluation of luminescence intensity and stability [1]: excellent additives |
| ALuc21: artificial luciferase, SEQ ID NO: 26 (protein, Synthetic ALuc21) MMGIKVLFALICFALVQANATINEEDIDLVAIGGSFATTDLETDLFTIVEDMNVISRDTDVDANRADRGRRGKLPGKKLPLEVLKELEANAQKAGCTRGCLICLSHIKCTAKMKKWLPGRCESWEGDKETGQGGIGEAIVDIPEIPGFKDLEPMEQFIAQVDLCVDCTTGCLKGLANVKCSDLLKKWLPSRCATFASKIQAQVDKIKGAGGS |  | remarkably stable luminescence signals |  |
| ALuc19: artificial luciferase, SEQ ID NO: 25 (protein, Synthetic ALuc19) MMGIKVLFALICFALVQANPTENKDDIDIVGVEGKFGTTDLETDLFTIVEDMNVISRDTDVDANRADRGRRGRKLPGKKLPKEVLKILEANAQRAGCHRGCLICLSHIKCTAKMKQWLPGRCESWEGDKETGQGGIGGPIVDIGVLGPEIPGFKDLEPMEQFIAQVDLCVDCTTGCLKGLANVKCSDLLKKWLPSRCATFASKIQAQVDKIKGAGGS |  | remarkably stable luminescence signals |  |
| ALuc15: artificial luciferase, SEQ ID NO: 12 (protein, Synthetic ALuc15) MMGIKVLFALICFALVQANPTENKDDIDIVGVEGKFGTTDLETDLFTIVEDMNVISRDTDVDANRADRGKLPGKKLPLEVLKELEANAQKAGCTRGCLICLSHIKCTAKMKKWLPGRCESWEGDKETGQGGIGEAIVDIPEIPGFKDLEPMEQFIAQVDLCVDCTTGCLKGLANVKCSDLLKKWLPSRCATFASKIQAQVDKIKGAGGS |  | remarkably stable luminescence signals | luminescence intensity higher than that of conventional GLuc, Renilla luciferase and MpLuc4 (COS-7 cells [3]): about 50 folds |
| ALuc10: artificial luciferase, SEQ ID NO: 11 (protein, Synthetic ALuc10) MMEIQVLFALICFALVQANPTENKDDIDIVGVEGKFGTTDLETDLFTIVEDMNVISRDTNLANSDADRGKLPGKKLPLEVLKELEANAQKAGCTRGCLICLSHIKCTAKMKKWLPGRCESWEGDKETGQGGIGEAIVDIPEIPGFKDLEPMEQFIAQVDLCVDCTTGCLKGLANVKCSDLLKKWLPSRCATFASKIQAQVDKIKGAGGS |  |  | luminescence intensity higher than that of conventional GLuc, Renilla luciferase and MpLuc4 (COS-7 cells [3]): about 50 folds |
| ALuc26: artificial luciferase, SEQ ID NO: 28 (protein, Synthetic Aluc26) MMGVKLIFAVLCVAVAQANATINENFEDIDLVAIGGSFADLETDLFTIVEDMNVISRDTDVDANRGGRGRRGKLPGKKLPLEVLKELEANAQKAGCTRGCLICLSHIKCTAKMKKWLPGRCESWEGDKETGQGGIGEAIVDIPEIPGFKNLAPMEQFIAQVDLCADCTTGCLKGLANVKCSNLLKKWLPSRCAGFANKIQAQVDTIKGLGGS |  | remarkably stable luminescence signals |  |
| ALuc27: artificial luciferase, SEQ ID NO: 29 (protein, Synthetic ALuc27) MMGVKLIFAVLCVAVAQANATINENFEDIDLVAIGGSFADLETDLFTIVEDMNVISRDTDVDANRGGRGRRGKLPGKKLPLEVLKELEANAQKAGCTRGCLICLSHIKCTAKMKKWLPGRCESWEGDKETGQGGIGEAIVDIPEIPGFKFLAPMEQFIAQVDLCADCTTGCLKGLANVFCSFLLKKWLPSRCAGFAFKIQAQVDTIKGLGGS |  | remarkably stable luminescence signals |  |
| ALuc28: artificial luciferase, SEQ ID NO: 30 (protein, Synthetic ALuc28) MMGVKLIFAVLCVAVAQANATINENFEDIDLVAIGGSFADLETDLFTIVEDMNVISRDTDVDANRGGRGRRGKLPGKKLPLEVLKELEANAQKAGCTRGCLICLSHIKCTAKMKKWLPGRCESWEGDKETGQGGIGEAIVDIPEIPGFKYLAPMEQFIAQVDLCADCTTGCLKGLANVYCSYLLKKWLPSRCAGFAYKIQAQVDTIKGLGGS |  | remarkably stable luminescence signals |  |
| ALuc29: artificial luciferase, SEQ ID NO: 31 (protein, Synthetic ALuc29) MMGVKLIFAVLCVAVAQANATINENFEDIDLVAIGGSFADLETDLFTIVEDMNVISRDTDVDANRGGRGRRGKLPGKKLPLEVLKELEANAQKAGCTRGCLICLSHIKCTAKMKKWLPGRCESWEGDKETGQGGIGEAIVDIPEIPGFKWLAPMEQFIAQVDLCADCTTGCLKGLANVWCSWLLKKWLPSRCAGFAWKIQAQVDTIKGLGGS |  | remarkably stable luminescence signals |  |
| ALuc18: artificial luciferase, SEQ ID NO: 14 (protein, Synthetic ALuc18) MMGIKVLFALICFALVQANPTENKDDIDIVGVEGKFGTTDLETDLFTIVEDMNVISRDTDVDANRADRGRRGHGGLPGKKMPLEVLLELEANAQRAGCTRGCLICLSKIKCTAKMKKWLPGRCESWAGDKETGQGGITEEETVDIPEIPGFKDLEPMEQFIAQVDLCVDCTTGCLKGLANVKCSDLLKKWLPSRCATFASKIQAQVDKIKGAGGS |  | remarkably stable luminescence signals | luminescence intensity higher than that of conventional GLuc, Renilla luciferase and MpLuc4 (COS-7 cells [3]): about 50 folds |
| ALuc17: artificial luciferase, SEQ ID NO: 24 (protein, Synthetic ALuc17) MMGIKVLFALICFALVQANPTENKDDIDIVGVEGKFGTTDLETDLFTIVEDMNVISRDTDVDANRADRGRRGKMPGKKLPKAVLIELEANAQKAGCHRGCLICLSHIKCTAKMKEWLPGRCESWGGDKETGQAGIVGAIVDIPEIPGFKDLEPMEQFIAQVDLCVDCTTGCLKGLANVKCSDLLKKWLPSRCATFASKIQAQVDKIKGAGGS |  | remarkably stable luminescence signals |  |
